Test results from publication PMC3549684 (Bioorganic & medicinal chemistry letters, 2012).

Columns and labels:
[1] = target: T1, recombinant mouse Lp-PLA2 (Mus musculus, UniProt Q60963); conditions: previously shown; cited from earlier work
T1 sequence (Q60963 22-440): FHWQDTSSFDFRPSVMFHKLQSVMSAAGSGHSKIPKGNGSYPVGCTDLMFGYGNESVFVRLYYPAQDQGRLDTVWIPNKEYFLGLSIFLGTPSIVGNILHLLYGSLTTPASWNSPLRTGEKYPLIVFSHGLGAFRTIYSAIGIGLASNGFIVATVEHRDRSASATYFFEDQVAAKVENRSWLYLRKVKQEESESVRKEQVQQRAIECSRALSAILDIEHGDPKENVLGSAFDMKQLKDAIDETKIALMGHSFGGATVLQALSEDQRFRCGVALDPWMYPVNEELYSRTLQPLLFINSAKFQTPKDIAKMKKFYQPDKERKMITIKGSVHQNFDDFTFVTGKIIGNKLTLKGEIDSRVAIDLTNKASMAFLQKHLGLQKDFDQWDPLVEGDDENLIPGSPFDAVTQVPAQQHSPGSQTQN

[2] = tested on: serine hydrolases detected in mouse brain; type: biochemical; conditions: FP-Rh, concentrations up to 10 µM
[3] = tested on: other detected serine hydrolase activities in the PC3 cell proteome; assay: competitive ABPP with FP-Rh in PC3 cell proteome, selectivity; type: biochemical, human; conditions: FP-Rh probe
[4] = tested on: ApoE-deficient mice; conditions: cited from earlier work
[5] = tested on: other ~40 serine hydrolases detected in PC3 cells; assay: ABPP-SILAC of inhibitor-treated PC3 cells in situ, other serine hydrolases; type: cell-based, human; conditions: 100 nM, 4 hours
[6] = tested on: human patients with coronary heart disease; conditions: cited from earlier work
[7] = tested on: diabetic and hypercholesterolemic swine; conditions: cited from earlier work

SMILES	inhibition of mouse Lp-PLA2 [1]	cross-reactivity with other serine hydrolases [2]	inhibition of other detected serine hydrolase activities [3]	atherosclerotic plaque formation [4]	plasma Lp-PLA2 activity [4]	effect on other ~40 serine hydrolases in situ [5]	atherosclerotic plaque formation [6]	plasma Lp-PLA2 activity [6]	atherosclerotic plaque formation [7]	plasma Lp-PLA2 activity [7]
CCCCCCCCCCC[C@@H](C[C@@H]1OC(=O)[C@H]1CCCCCC)OC(=O)[C@H](CC(C)C)NC=O [THL, tetrahydrolipstatin]	inhibited	–	–	–	–	–	–	–	–	–
CCN(CC)CCN(Cc1ccc(-c2ccc(C(F)(F)F)cc2)cc1)C(=O)Cn1c(SCc2ccc(F)cc2)nc(=O)c2c1CCC2 [darapladib]	–	neither darapladib nor JMN4 cross-reacted	not inhibited	significantly decrease	significantly decrease	not affecting any	significantly decrease	significantly decrease	significantly decrease	significantly decrease
